Data: patent US20260055117A1, “SUBSTITUTED PYRIDONE GPR84 ANTAGONISTS AND USES THEREOF” (Liminal BioSciences Limited, priority 2022, published 2026)

Biological target: T1, human GPR84 receptor (Homo sapiens, UniProt Q9NQS5)
T1 construct: host or cells: HEK293, transiently transfected
Assay: Gαi biosensor BRET assay (GPR84 antagonism vs agonist ZQ-16)
Format: cell-based
Conditions: HEK293 cells, 200 nmol/L agonist ZQ-16; for IC50: Gαi biosensor BRET assay; for inhibition at 2 µM: tested at 2 μM (concentration code A); for inhibition at 10 µM: tested at 10 μM (concentration code D)
Text: Background—The following assays can be used for determination of GPR84 activation in living HEK293 cells. The Gai BRET biosensor (Gagnon et al., 2018; Gales et al., 2006. Nat Struct Mol Biol. 13, 778-86; Saulieres et al., 2012. Nat Chem Biol. 8, 622-30) allows to directly monitor GPR84-mediated activation of Gai. The Gai biosensor consists of a Rluc8-tagged Gai2 subunit, a GFP10-tagged Gy2 subunit, and an untagged GB1. Agonist stimulation and GPR84 activation triggers a physical separation between the RLuc8-Gai donor and the GFP10-Gy2 acceptor, resulting in a decrease in BRET signal whose amplitude is correlated to ligand efficacy (Gales et al., 2006). Moreover, signaling functions of GPCRs are tightly regulated by endocytosis, the targeting of receptors to endosomes and their sorting to lysosomes or recycling to the plasma membrane. The early endosomes (EEs) trafficking assay (Namkung et al., 2016. Nat Commun. 7, 12178) uses Rluc8-tagged GPR84 and Renilla GFP (rGFP) attached to the FYVE domain from human endofin/zinc finger FYVE domain-containing protein 16, which binds phosphatidylinositol 3-phosphate in EEs. Agonist stimulation of GPR84-Rluc8 leads to trafficking of the receptor to EEs, and ensuing increase of the donor concentration relative to the rGFP-FYVE acceptor anchored in the same cellular compartment, and thus results in an increase in BRET signal.
Plasmids—The cDNA clones for human GPR84 receptor, human Gai2, GB1, and Gy2 were obtained from the cDNA Resource Center (www.cdna.org). GFP10 (F64L, S147P, S202F and H231L variant of Aequorea victoria Green Fluorescent Protein) gBlocks gene fragments (Integrated DNA Technologies, IA) and linker were inserted in frame at the N-terminus of human Gy2. Rluc8 (A55T, C124A, S130A, K136R, A143M, M185V, M253L, and S287L variant of the Renilla reniformis luciferase) gBlocks gene fragment was inserted with linkers in frame in between residues 91 and 92 of Gai2 or at the C-terminus of GPR84. The FYVE domain from human endofin (residues Q739 to K806) attached in frame at the C terminus of a humanized Renilla GFP (rGFP), were synthesized as gBlocks gene fragments.
Bioluminescence Resonance Energy Transfer (BRET) Measurement-HEK293 cells were transfected with GPR84-Rluc8 and rGFP-FYVE for the EEs trafficking biosensor or with GPR84, Gai2-Rluc8, GFP10-Gy2, and GB1 for the Ga; biosensor. The following day, transiently transfected cells were seeded in 96-well white clear bottom microplates coated with poly-D-lysine and left in culture for 24 hours. Cells were washed once with Tyrode's buffer (140 mmol/L NaCl, 1 mmol/L CaCl2), 2.7 mmol/L KCl, 0.49 mmol/L MgCl2, 0.37 mmol/L NaH2PO4, 5.6 mmol/L glucose, 12 mmol/L NaHCO3, and 25 mmol/L HEPES, pH 7.5) before performing assays in Tyrode's buffer. Test compounds were incubated with cells for 5 (Gai) or 15 (EEs) minutes at 37° C. before addition of 200 nmol/L of the GPR84 agonist ZQ-16 (2-(Hexylthio)-6-hydroxy-4 (3H)-pyrimidinone) for 5 minutes at room temperature (Gai) or 30 minutes at 37° C. (EEs). The Rluc8 substrate coelenterazine 400A (Prolume, Lakeside, A Z) was added at a final concentration of 5 μmol/L and BRET readings were collected using an Infinite M1000 microplate reader (Tecan, Morrisville, N C). BRET2 readings between Rluc8 and GFP10 or rGFP were collected by sequential integration of the signals detected in the 370 to 450 nm (Rluc8) and 510 to 540 nm (GFP10, rGFP) windows. The BRET signal was calculated as the ratio of light emitted by acceptor (GFP10, rGFP) over the light emitted by donor (Rluc8). The values were corrected to net BRET by subtracting the background BRET signal obtained in cells transfected with Rluc8 constructs alone. Ligand-promoted net BRET values were calculated by subtracting vehicle-induced net BRET from ligand-induced net BRET.

T1 sequence (Q9NQS5 whole entry): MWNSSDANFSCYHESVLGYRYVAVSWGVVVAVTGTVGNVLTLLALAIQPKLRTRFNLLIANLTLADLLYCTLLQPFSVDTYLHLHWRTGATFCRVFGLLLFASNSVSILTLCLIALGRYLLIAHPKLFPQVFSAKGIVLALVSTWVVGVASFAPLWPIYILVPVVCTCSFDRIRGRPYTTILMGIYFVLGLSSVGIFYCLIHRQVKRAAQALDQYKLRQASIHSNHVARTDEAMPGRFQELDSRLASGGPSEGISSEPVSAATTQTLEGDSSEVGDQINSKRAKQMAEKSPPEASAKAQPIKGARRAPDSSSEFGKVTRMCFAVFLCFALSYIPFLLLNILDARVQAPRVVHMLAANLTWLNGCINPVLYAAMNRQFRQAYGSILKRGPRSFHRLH

| IC50 [nM] | inhibition at 2 µM [%] | inhibition at 10 µM [%] | Structure (SMILES) |
| --- | --- | --- | --- |
| ≤ 300 | > 75 |  | Cc1nc(OCC(=O)N(C)C)cc(=O)n1C(C)c1ccc(C#CC2CC2)cc1 (stereo not drawn) [Compound I-89] |
|  |  | 50 to 75 | Cc1cc(C#CC2CC2)cc(=O)n1[C@H](C)c1ccc(C#CC2CC2)cc1 [Compound I-90] |
|  |  | < 25 | Cc1cc(OCc2ncccn2)cc(=O)n1[C@H](C)c1ccc(OC(C)C)cc1 [Compound I-129] |
|  |  | < 25 | CCCCCCOc1ccc([C@@H](C)n2c(C)cc(OCc3ncccn3)cc2=O)cc1 [Compound I-130] |
|  |  | < 25 | Cc1cc(OCc2ncccn2)cc(=O)n1[C@H](C)c1ccc(/C=C/C2CC2)cc1 [Compound I-149] |
|  |  | < 25 | Cc1cc(OCc2ncccn2)cc(=O)n1[C@H](C)c1ccc(-c2ccc(C3CC3)cc2)cc1 [Compound I-150] |
|  |  | 50 to 75 | Cc1cc(OCC(=O)N2CCC3(CC2)CN(C)C3)cc(=O)n1[C@H](C)c1ccc(C#CC2CC2)cc1 [Compound I-203] |
|  |  | > 75 | Cc1cc(OCC(=O)N(C)C)cc(=O)n1[C@H](C)c1ccc(C#CC2(O)CC2)cc1 [Compound I-210] |
|  |  | < 25 | Cn1c(-c2ccc(C#CC3CC3)cc2)cc(OCC2COCCO2)nc1=O (stereo not drawn) [Compound I-215] |
| ≤ 300 | > 75 |  | Cc1nc(OCC(=O)N(C)C)cc(=O)n1[C@H](C)c1ccc(C#CC2CC2)cc1 [Compound I-217] |
|  |  | < 25 | Cc1nc(OCC(=O)N(C)C)cc(=O)n1[C@@H](C)c1ccc(C#CC2CC2)cc1 [Compound I-218] |
|  |  | < 25 | Cc1cc(OCC(=O)N(C)C)cc(=O)n1C(C)c1ccccn1 (stereo not drawn) [Compound I-225] |
|  |  | < 25 | Cc1cc(OCC(=O)N(C)C)cc(=O)n1C(C)c1ccncc1 (stereo not drawn) [Compound I-227] |
|  |  | < 25 | COc1cc(C(C)n2c(C)cc(OCC(=O)N(C)C)cc2=O)ccn1 (stereo not drawn) [Compound I-230] |
|  |  | < 25 | Cc1cc(OCC(=O)N(C)C)cc(=O)n1C(C)c1ccnc(O)c1 (stereo not drawn) [Compound I-231] |
| ≤ 300 | > 75 |  | Cc1cc(OCC(=O)N(C)CC(F)(F)F)cc(=O)n1[C@H](C)c1ccc(C#CC2CC2)cc1 [Compound I-232] |
|  |  | < 25 | Cc1cc(C#CC2CC2)cc(=O)n1[C@@H](C)c1ccc(C#CC2CC2)cc1 [Compound I-234] |
| ≤ 300 | > 75 |  | Cc1nc(OCC(=O)N2CCCC2)cc(=O)n1[C@H](C)c1ccc(C#CC2CC2)cc1 [Compound I-235] |
|  |  | 25 to 50 | Cc1nc(OCC(=O)N2CCCC2)cc(=O)n1[C@@H](C)c1ccc(C#CC2CC2)cc1 [Compound I-236] |
|  |  | < 25 | Cc1cc(OCC(=O)N(C)CC(F)(F)F)cc(=O)n1[C@@H](C)c1ccc(C#CC2CC2)cc1 [Compound I-237] |
|  | < 25 |  | COc1cccc([C@H](C)n2c(C)cc(C#CC3CC3)cc2=O)c1 [Compound I-238] |
|  | < 25 |  | COc1ccc([C@H](C)n2c(C)cc(C#CC3CC3)cc2=O)cc1 [Compound I-239] |
|  |  | < 25 | Cc1cc(C#CC2CC2)cc(=O)n1[C@H](C)c1ccc(Br)cc1 [Compound I-240] |
| ≤ 300 | > 75 |  | Cc1cc(OCC(=O)N2CC[C@@H](O)C2)cc(=O)n1[C@H](C)c1ccc(C#CC2CC2)cc1 [Compound I-241] |

| IC50 [nM] | inhibition at 2 µM [%] | inhibition at 10 µM [%] | Structure (SMILES) |
| --- | --- | --- | --- |
| ≤ 300 | > 75 |  | Cc1cc(OCC(=O)N2CC[C@H](O)C2)cc(=O)n1[C@H](C)c1ccc(C#CC2CC2)cc1 [Compound I-242] |
| ≤ 300 | > 75 |  | Cc1cc(OCC(=O)N2CC[C@@H](F)C2)cc(=O)n1[C@H](C)c1ccc(C#CC2CC2)cc1 [Compound I-243] |
| ≤ 300 | > 75 |  | Cc1cc(OCC(=O)N2CC[C@H](F)C2)cc(=O)n1[C@H](C)c1ccc(C#CC2CC2)cc1 [Compound I-244] |
| ≤ 300 | > 75 |  | Cc1cc(OCC(=O)N2CCC(=O)C2)cc(=O)n1[C@H](C)c1ccc(C#CC2CC2)cc1 [Compound I-245] |
| 300 to 1000 |  | > 75 | Cc1cc(OCC(=O)N2CCC[C@@H]2C(=O)O)cc(=O)n1[C@H](C)c1ccc(C#CC2CC2)cc1 [Compound I-246] |
| ≤ 300 | > 75 |  | Cc1cc(OCC(=O)N2CCC[C@H]2CO)cc(=O)n1[C@H](C)c1ccc(C#CC2CC2)cc1 [Compound I-248] |
| ≤ 300 | > 75 |  | Cc1cc(OCC(=O)N2CC[C@@H](C(=O)O)C2)cc(=O)n1[C@H](C)c1ccc(C#CC2CC2)cc1 [Compound I-250] |
| ≤ 300 | > 75 |  | Cc1cc(OCC(=O)N2CC[C@H](C(=O)O)C2)cc(=O)n1[C@H](C)c1ccc(C#CC2CC2)cc1 [Compound I-251] |
| ≤ 300 | > 75 |  | Cc1cc(OCC(=O)N2CC[C@@H](S(C)(=O)=O)C2)cc(=O)n1[C@H](C)c1ccc(C#CC2CC2)cc1 [Compound I-252] |
|  |  | > 75 | Cc1cc(OCC(=O)N2CC[C@H](S(C)(=O)=O)C2)cc(=O)n1[C@H](C)c1ccc(C#CC2CC2)cc1 [Compound I-253] |
| ≤ 300 | > 75 |  | Cc1cc(OCC(=O)N2CCC[C@@H]2C(F)(F)F)cc(=O)n1[C@H](C)c1ccc(C#CC2CC2)cc1 [Compound I-254] |
| 300 to 1000 | > 75 |  | Cc1cc(OCC(=O)N2CCC[C@H]2C(F)(F)F)cc(=O)n1[C@H](C)c1ccc(C#CC2CC2)cc1 [Compound I-255] |
|  | > 75 |  | Cc1cc(OCC(=O)N2CCC(C)(C)C2)cc(=O)n1[C@H](C)c1ccc(C#CC2CC2)cc1 [Compound I-256] |
| ≤ 300 | > 75 |  | Cc1cc(OCC(=O)N2CCC(F)(F)C2)cc(=O)n1[C@H](C)c1ccc(C#CC2CC2)cc1 [Compound I-257] |
| ≤ 300 | > 75 |  | Cc1cc(OCC(=O)N2CCCC2(C)C)cc(=O)n1[C@H](C)c1ccc(C#CC2CC2)cc1 [Compound I-258] |
| ≤ 300 | > 75 |  | Cc1cc(OCc2nnn[nH]2)cc(=O)n1[C@H](C)c1ccc(C#CC2CC2)cc1 [Compound I-259] |
| ≤ 300 | > 75 |  | Cc1cc(OCc2nnnn2C)cc(=O)n1[C@H](C)c1ccc(C#CC2CC2)cc1 [Compound I-260] |
| 300 to 1000 | > 75 |  | Cc1cc(OCc2nnn(C)n2)cc(=O)n1[C@H](C)c1ccc(C#CC2CC2)cc1 [Compound I-261] |
|  |  | > 75 | Cc1cc(OCC(=O)N(C)C)cc(=O)n1C(C)c1ccc(C#CC2CC2)cc1Cl (stereo not drawn) [Compound I-262] |
|  |  | < 25 | Cc1cc(OCC(=O)N(C)C)cc(=O)n1[C@H](C)c1ccc(C#CC(=O)O)cc1 [Compound I-264] |
|  |  | < 25 | Cc1cc(OCC(=O)N(C)C)cc(=O)n1[C@H](C)c1ccc(C(=O)O)cc1 [Compound I-265] |
|  |  | < 25 | Cc1cc(OCC(=O)N(C)C)cc(=O)n1[C@H](C)c1ccc(-c2nnn[nH]2)cc1 [Compound I-266] |
| ≤ 300 | > 75 |  | CCN(C)C(=O)COc1cc(C)n([C@H](C)c2ccc(C#CC3CC3)cc2)c(=O)c1 [Compound I-267] |
